Reference: patent publication US8207293B2, “Peptides derived from maurocalcine used as vectors for intracellular addressing of molecules of interest” (Commissariat a l'Energie Atomique, priority 2004, dated 2012)
Read-outs that look alike come from different tables or passages of the source.

Key:
HEK293 cells [1] = assay: Cell penetration and subcellular distribution of complexes in HEK293 cells, confocal microscopy; format: cell-based, human; conditions: 333 nM, 30 min
Method: Soluble streptavidin-cyanin 3 and streptavidin-cyanin 5 (Strept-Cy^3 and Strept-Cy^5, AMERSHAM) were mixed with 4 molar equivalents of biotinylated maurocalcine (1 mM) or biotinylated maurocalcine-derived peptide, in phosphate buffer (PBS, in mM: 136 NaCl, 1.47 Na2HPO4, 2.6 KCl, 1 CaCl2, 0.5 MgCl2, pH 7.2), for 2 hours at 37° C. and in the dark.
The human embryonic kidney cells (HEK 293 line, ATCC) are divided before confluence, by treatment with trypsin (1%), and are maintained in DMEM medium (INVITROGEN) containing 10% of inactivated fetal calf serum (INVITROGEN) and 1% of penicillin/streptomycin (INVITROGEN), in a CO2 incubator (5%). The culture medium is changed every 2 days.
The cells were incubated with maurocalcine and the derived peptides, biotinylated and complexed with streptavidin-cyanin 3 or with streptavidin-cyanin 5, […], in the dark and at ambient temperature, for 30 minutes to 1 hour. After 3 washes in PBS, the cells are fixed at ambient temperature, in a paraformaldehyde solution (4%), for 10 min, in the dark, washed in PBS and incubated for one hour with FITC-conjugated concanavalin (MOLECULAR PROBES, 5 μg/ml) in order to label the plasma membrane, and TO-PRO-3 iodide (MOLECULAR PROBES, 1 μM) in order to label the nucleus. In order to label the cytoskeleton, the cells were fixed and permeabilized with ice-cold methanol, for 10 min, washed twice in PBS and incubated with a mouse anti-alpha-tubulin antibody (1:1000, SIGMA), for 2 hours. After two washes in PBS, the cells were incubated for one hour with an anti-mouse IgG secondary antibody conjugated to Alexa 488 (1:1000, MOLECULAR PROBES). The cultures were then mounted in Vectashield mounting medium (VECTOR LABORATORIES). Preparations were observed by laser scanning confocal microscopy, using a Leica TCS-SP2 control system. The Alexa-488 and Cy3 or propidium iodide (PI) fluorescences were excited sequentially and then recorded. The Cy3 fluorescence was excited using a 543 nm helium-neon laser beam and the fluorescence emission was recorded between 554 nm and 625 nm. The images were introduced into Adobe Photoshop 7.0.

HEK293 cells [2] = assay: Flow cytometry analysis of cellular penetration of complexes (trypsin/heparin treatment); format: cell-based, human; conditions: for penetrating activity compared with maurocalcine (factor): biotinylated variant/Strept-Cy3 complexes, FIG. 5
Method: The cells are incubated with maurocalcine and the derived peptides, biotinylated and complexed with […], at the final concentration of 100 nM in PBS, in the dark and at ambient temperature for 1 hour. After 2 washes in PBS (PBS, in mM: […], 6.84 Na2HPO4, 3.16 NaH2PO4, pH 7.2), and the cells were treated with trypsin (1 mg/ml, INVITROGEN), for 10 min at 37° C., in order to remove the extracellular complexes and the plasma-membrane-bound complexes. After the incubation with trypsin, the cell suspension was centrifuged at 500 g and the cells were resuspended in PBS containing 1 μg/ml of propidium iodide (SIGMA). […] The analysis was carried out on live cells, using a flow cytometer (FACScalibur, BECTON DICKINSON). The data were recorded and analyzed using appropriate software (CellQuest, BD BIOSCIENCES). The live cells were sorted according to their size and their granulosity (forward/side scattering), over a total of 10 000 events.
The analysis is carried out as described in Example 1. For the heparin treatment experiments, the complexes were prepared in a heparin solution (bovine intestine heparin, sodium salt, SIGMA) and the cells were washed twice with the heparin solution, before and after incubation with the complexes prepared in the same heparin solution.
The cellular penetration was analyzed by flow cytometry, on cells incubated with the MCab/Strept-Cy3 complexes, and then treated with trypsin, so as to remove the complexes bound to the plasma membrane by means of lipids, specific receptors or heparan sulfate glycosaminoglycan (HPSG). It has been shown that this method makes it possible to effectively study the entry of penetrating peptides into cells (Richard et al., J. Biol. Chem., 2003, 278, 585-590).

RyR1 receptor = molecular target: T1, RyR1 receptor (Oryctolagus cuniculus, UniProt P11716); assay: Tritiated ryanodine binding assay on heavy sarcoplasmic reticulum vesicles; conditions: biotinylated variants complexed with Strept-Cy3, increasing concentrations
T1 construct: from tissue; host or cells: heavy sarcoplasmic reticulum vesicles (skeletal muscle implied)
Method: The heavy sarcoplasmic reticulum vesicles are prepared according to the method of Kim et al. (J. Biol. Chem., 1983, 258, 9662-9668) modified as described in Marty et al. (J. Biol. Chem., 2000, 275, 8206-8212). The protein concentration is measured by the Biuret method.
The heavy sarcoplasmic reticulum vesicles (1 mg/ml) are incubated at 37° C. for 2 hours and 30 min, in reaction buffer comprising 5 nM [^3H]-ryanodine, 150 mM NaCl, 2 mM EGTA, 2 mM Ca^2+ (pCa=5) and 20 mM Hepes, pH 7.4. Maurocalcine, the maurocalcine-derived peptides and their biotinylated derivatives are added before the addition of the heavy sarcoplasmic reticulum vesicles. The [^3H]-ryanodine bound to the heavy sarcoplasmic vesicles is measured by filtration through Whatmann GF/B filters, followed by three washes with 5 ml of ice-cold washing buffer (150 mM NaCl, 20 mM Hepes, pH 7.4). The [^3H]-ryanodine retained on the filters is measured by liquid scintillation. The nonspecific binding is measured in the presence of […] ryanodine (20 μM). The results are given in the form of means±standard deviation. Each experiment is carried out in triplicate and repeated at least twice.

[3] = Surface pressure of monomolecular lipid films (GD3)
Method: (§1) The disialoganglioside NeuAcα2-8NeuAca2-3Galb1-aGlcb1-Cer (GD3) and dipalmitoylphosphatidylcholine (DPPC) were provided respectively by MATREYA INC and SIGMA.
(§2) The surface pressure was measured using an automatic microtensiometer (μ THROUGH SX, KIBRON INC.). The apparatus makes it possible to record kinetics of interaction of a ligand with a monomolecular film using a series of appropriate Teflon probes. All the experiments were carried out in a controlled atmosphere at 20±1. The molecular films of the lipids indicated were deposited onto an aqueous phase of ultrapure water (800 μl), using hexane:chloroform:ethanol (11:5:4, v/v/v), as described previously (Mahfoud et al., J. Biol. Chem., 2002, 277, 11292-11296). After spreading of the film, a minimum period of elapsed time of 5 min was observed, in order to allow the solvent to evaporate off. In order to measure the interaction of MCa with the lipid monolayers, various concentrations of peptides were injected into the monomolecular film with a […] Hamilton syringe and the resulting increase in pressure, produced by the incorporation of the peptide, was recorded until equilibrium was reached (maximum increase in surface pressure generally reached after an incubation of 100 to 150 min). For the dose-dependent interaction between MCa and GD3, the monomolecular films of GD3 were prepared at an initial surface pressure (pi) of 10 mN·m^−1. The results were analyzed with Filmware 2.5 software (KIBRON INC.). The system for measuring the surface pressures was accurate to 0.25 mN·m^−1 under the experimental conditions.

[4] = Surface pressure of monomolecular lipid films (DPPC); conditions: 1 μM
Method: as §1
as §2, with “For the dose-dependent interaction between MCa and GD3, the monomolecular films of GD3 were prepared at an initial surface pressure (pi) of 10 mN·m^−1.” left out, “The system for measuring the surface pressures was accurate to 0.25 mN·m^−1 under the experimental conditions.” left out

live cells = assay: Flow cytometry analysis of cellular penetration at increasing extracellular KCl (membrane potential); format: cell-based
Method: The MCab-Strept-Cy^5 complexes were prepared in solutions containing various NaCl/KCl ratios (composition in mM: 145 to 5 NaCl, 5 to 145 KCl, 2.5 CaCl2, 1.2 MgCl2, 10 glucose, 10 HEPES, pH 7.4).
The cells were washed twice with the NaCl/KCl solution used to prepare the complexes, and then incubated with maurocalcine and the derived peptides, which are biotinylated and complexed with streptavidin-cyanin 3 (MCab-Strept-Cy^3 complexes), at the final concentration of 100 nM in the same NaCl/KCl solution, in the dark and at ambient temperature for 1 hour. After 2 washes in the same NaCl/KCl buffer, the cyanin 3 fluorescence was analyzed on live cells, using a flow cytometer (FACScalibur, BECTON DICKINSON). The data were recorded and analyzed using appropriate software (CellQuest, BD BIOSCIENCES). The live cells were sorted according to their size and their granulosity (forward/side scattering), over a total of 10 000 events.

T1 sequence (P11716 whole entry): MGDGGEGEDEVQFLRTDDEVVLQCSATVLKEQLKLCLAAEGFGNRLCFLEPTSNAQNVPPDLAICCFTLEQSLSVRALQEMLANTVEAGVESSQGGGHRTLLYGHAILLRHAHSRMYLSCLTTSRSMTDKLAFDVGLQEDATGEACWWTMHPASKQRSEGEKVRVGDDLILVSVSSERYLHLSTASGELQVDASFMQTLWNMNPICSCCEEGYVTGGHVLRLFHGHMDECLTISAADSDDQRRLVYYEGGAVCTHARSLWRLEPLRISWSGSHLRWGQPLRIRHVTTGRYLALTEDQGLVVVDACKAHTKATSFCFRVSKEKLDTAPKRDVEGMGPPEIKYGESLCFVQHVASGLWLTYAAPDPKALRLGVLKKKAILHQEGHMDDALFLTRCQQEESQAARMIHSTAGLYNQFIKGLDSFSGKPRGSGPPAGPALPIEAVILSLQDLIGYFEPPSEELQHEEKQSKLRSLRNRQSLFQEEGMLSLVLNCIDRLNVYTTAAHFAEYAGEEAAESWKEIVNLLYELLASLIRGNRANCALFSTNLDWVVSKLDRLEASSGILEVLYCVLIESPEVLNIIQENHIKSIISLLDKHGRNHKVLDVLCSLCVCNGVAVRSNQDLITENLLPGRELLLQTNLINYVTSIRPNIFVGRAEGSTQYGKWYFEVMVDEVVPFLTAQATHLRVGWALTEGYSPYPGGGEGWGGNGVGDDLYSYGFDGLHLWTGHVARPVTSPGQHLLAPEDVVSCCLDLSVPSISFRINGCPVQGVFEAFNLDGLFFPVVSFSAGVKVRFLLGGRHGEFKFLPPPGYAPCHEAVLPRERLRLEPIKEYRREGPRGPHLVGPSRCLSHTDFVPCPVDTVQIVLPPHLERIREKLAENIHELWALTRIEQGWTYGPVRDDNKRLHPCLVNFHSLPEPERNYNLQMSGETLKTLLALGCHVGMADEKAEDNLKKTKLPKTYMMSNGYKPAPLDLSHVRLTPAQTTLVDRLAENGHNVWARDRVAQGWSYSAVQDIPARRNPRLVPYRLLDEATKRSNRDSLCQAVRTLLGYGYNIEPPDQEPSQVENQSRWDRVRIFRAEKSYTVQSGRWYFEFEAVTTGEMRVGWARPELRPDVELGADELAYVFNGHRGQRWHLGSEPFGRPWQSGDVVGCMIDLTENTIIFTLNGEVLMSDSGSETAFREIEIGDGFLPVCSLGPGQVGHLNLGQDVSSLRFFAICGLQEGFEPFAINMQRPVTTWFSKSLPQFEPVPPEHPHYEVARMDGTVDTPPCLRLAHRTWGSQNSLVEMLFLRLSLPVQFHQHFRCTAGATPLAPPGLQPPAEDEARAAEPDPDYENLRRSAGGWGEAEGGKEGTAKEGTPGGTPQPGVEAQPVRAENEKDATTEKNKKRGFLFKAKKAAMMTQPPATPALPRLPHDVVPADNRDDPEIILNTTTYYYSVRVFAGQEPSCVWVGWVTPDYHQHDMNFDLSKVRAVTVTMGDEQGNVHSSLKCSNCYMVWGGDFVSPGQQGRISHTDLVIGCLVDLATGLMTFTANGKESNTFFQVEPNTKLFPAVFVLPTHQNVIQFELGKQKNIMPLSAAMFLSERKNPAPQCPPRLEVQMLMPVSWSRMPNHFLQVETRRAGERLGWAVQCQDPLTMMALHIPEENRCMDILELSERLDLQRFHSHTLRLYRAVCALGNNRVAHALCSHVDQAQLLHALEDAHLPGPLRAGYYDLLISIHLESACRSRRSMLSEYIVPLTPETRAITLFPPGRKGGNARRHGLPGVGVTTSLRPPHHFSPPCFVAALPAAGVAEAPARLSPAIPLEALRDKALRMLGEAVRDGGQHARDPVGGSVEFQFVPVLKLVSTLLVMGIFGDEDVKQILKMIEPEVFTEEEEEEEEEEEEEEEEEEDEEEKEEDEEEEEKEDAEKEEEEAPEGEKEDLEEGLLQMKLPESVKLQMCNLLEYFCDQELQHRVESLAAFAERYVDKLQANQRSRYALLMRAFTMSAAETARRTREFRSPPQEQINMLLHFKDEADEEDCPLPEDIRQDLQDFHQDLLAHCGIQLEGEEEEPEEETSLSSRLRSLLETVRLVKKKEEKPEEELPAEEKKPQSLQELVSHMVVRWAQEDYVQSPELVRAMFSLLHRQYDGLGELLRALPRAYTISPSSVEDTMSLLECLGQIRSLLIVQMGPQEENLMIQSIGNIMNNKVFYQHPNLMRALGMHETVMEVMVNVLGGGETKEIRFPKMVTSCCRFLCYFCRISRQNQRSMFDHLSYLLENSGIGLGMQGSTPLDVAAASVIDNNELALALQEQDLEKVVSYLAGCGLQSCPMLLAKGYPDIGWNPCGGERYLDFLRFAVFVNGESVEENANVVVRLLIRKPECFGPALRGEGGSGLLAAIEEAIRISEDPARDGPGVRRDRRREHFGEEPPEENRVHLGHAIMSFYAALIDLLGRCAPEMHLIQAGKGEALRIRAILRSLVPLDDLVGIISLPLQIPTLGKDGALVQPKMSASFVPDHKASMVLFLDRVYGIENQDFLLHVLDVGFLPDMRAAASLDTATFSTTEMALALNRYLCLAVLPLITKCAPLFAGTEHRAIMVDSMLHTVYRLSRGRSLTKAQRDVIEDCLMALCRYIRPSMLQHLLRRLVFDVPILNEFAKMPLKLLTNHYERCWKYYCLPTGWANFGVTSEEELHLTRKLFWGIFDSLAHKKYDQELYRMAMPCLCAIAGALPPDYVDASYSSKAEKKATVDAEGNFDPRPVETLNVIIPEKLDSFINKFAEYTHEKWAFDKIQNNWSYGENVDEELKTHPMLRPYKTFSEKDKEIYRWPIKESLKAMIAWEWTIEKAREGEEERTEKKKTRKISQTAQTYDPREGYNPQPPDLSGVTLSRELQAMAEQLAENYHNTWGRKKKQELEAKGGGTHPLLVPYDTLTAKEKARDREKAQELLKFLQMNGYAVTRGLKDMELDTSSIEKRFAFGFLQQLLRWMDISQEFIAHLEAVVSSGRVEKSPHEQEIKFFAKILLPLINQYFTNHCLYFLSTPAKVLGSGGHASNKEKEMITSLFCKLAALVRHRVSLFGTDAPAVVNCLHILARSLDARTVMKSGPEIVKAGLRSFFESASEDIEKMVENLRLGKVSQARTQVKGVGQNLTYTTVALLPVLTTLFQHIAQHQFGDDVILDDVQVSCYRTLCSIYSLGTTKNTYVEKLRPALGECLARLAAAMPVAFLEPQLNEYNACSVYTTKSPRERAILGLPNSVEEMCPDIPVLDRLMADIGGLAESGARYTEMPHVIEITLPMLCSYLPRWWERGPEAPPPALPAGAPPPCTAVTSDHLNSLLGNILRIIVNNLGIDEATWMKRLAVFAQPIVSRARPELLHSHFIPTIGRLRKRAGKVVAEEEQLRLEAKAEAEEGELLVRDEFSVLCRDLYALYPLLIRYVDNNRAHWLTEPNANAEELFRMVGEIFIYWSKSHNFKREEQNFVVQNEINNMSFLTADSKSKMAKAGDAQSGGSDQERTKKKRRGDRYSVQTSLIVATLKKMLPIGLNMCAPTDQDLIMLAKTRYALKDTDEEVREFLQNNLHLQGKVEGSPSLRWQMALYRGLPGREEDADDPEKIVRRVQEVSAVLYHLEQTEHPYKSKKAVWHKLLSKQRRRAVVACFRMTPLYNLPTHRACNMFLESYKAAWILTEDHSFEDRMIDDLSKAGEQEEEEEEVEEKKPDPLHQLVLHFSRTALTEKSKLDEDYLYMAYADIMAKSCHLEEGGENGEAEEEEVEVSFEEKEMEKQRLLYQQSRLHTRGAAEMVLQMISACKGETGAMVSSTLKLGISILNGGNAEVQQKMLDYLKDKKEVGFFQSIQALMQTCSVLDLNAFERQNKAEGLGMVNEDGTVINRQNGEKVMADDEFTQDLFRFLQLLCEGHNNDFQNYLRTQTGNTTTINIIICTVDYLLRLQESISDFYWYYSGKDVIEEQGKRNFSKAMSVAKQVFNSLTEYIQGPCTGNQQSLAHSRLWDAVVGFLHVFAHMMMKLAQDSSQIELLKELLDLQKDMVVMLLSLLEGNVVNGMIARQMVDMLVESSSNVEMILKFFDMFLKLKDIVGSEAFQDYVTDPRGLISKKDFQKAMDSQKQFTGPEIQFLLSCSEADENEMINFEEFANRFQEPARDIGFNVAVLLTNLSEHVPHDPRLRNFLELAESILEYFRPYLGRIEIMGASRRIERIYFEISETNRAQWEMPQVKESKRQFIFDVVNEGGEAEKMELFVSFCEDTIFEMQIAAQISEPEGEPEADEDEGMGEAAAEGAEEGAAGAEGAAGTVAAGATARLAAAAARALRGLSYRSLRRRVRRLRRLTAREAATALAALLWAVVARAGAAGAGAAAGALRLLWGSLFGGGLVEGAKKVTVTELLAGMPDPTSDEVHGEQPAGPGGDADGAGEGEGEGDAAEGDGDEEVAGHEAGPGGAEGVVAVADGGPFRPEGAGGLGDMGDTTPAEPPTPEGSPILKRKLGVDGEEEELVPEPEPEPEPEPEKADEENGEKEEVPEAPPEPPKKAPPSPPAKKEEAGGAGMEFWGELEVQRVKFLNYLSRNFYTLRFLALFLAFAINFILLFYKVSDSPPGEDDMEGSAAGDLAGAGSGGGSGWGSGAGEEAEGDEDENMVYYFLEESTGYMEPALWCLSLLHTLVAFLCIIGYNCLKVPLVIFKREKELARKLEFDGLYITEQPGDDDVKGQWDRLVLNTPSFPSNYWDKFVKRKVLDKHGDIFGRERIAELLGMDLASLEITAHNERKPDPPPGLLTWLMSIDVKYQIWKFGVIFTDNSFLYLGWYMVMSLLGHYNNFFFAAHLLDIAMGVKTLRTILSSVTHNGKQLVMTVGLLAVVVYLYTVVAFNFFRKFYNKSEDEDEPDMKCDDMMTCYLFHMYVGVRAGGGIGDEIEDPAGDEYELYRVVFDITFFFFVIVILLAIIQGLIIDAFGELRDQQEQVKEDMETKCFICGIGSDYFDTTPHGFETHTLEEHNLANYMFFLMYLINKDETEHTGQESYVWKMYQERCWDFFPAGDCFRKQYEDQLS

Sequence	transduction of HEK293 cell cultures by biotinylated variant/Strept-Cy3 complexes (HEK293 cells [1])	penetrating activity compared with maurocalcine (factor) (HEK293 cells [2])	activity on the RyR1 receptor (stimulation of [3H]-ryanodine binding) (RyR1 receptor)	concentration at which interaction with GD3 is detectable [3] [nM]	concentration at which interaction with GD3 reaches a maximum [3] [nM]	maximum increase in surface pressure a (kinetics fit) ([3]; 1 μM MCa, GD3 film) [mN·m^−1]	time constant for the change in surface pressure b ([3]; 1 μM MCa, GD3 film) [s⁻¹]	maximum increase in surface pressure a (dose-response fit) ([3]; GD3 film, as a function of MCa concentration) [mN·m^−1]	EC50 ([3]; read-out: concentration that produces 50% of the maximum effect on GD3) [nM]	EC50 ([3]; sigmoidal fit, FIG. 11B, read-out: concentration X0 giving 50% of the maximum effect on GD3 surface pressure) [nM]	lowest concentration at which penetration into the cells occurs (HEK293 cells [2]; biotinylated peptide/Strept-Cy3 complexes, dose-response) [nM]	change in surface pressure of the DPPC film [4]	limitation of penetration by depolarization (increase in extracellular KCl) (live cells)
GDCLPHAKLCKENKDCCSKKCKRRGTNIEKRCR (maurocalcine L7A mutant)	effectively transduce cell cultures	5	less active on the RyR1 receptor than MCab/Strept-Cy3										
GDCLPHLKLCKENKDCCSKKCKRAGTNIEKRCR (maurocalcine R24A mutant)	effectively transduce cell cultures	comparable to, or even slightly less than, maurocalcine	inactive										
GDCLPHLKLCKENKDCCSKKCKRRGTNIEKRCR [maurocalcine]				100	750	22.9	0.0003	22.1	500	490	10	no significant change in surface pressure	approximately 50%
